Assays:
Assay in all cases: drug sensitivity score (DSS2, normalised partial AUC of dose-response, 72 h CellTiter-Glo viability) (DSS (dimensionless)); higher = more sensitive (stronger growth inhibition / cytotoxicity); extreme values may be limits of the assay
PF179T = test system: PF179T
How it was run: (§1)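 Cells were added to 384-well plates already holding compounds at five doses over a 10,000-fold range: low-passage primary prostate cancer-associated fibroblasts, PF179T, WPMY-1, LNCaP and 22Rv1. Viability was measured 72 h later by CellTiter-Glo 2.0 luminescence and scaled to vehicle and positive-control wells. The drug sensitivity score, computed in BREEZE, is a partial area under the fitted logistic dose–response curve divided by the log of its upper asymptote, with higher scores meaning greater sensitivity.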

CAF#1 = test system: CAF#1 (primary prostate cancer-associated fibroblasts of myCAF-like type)
How it was run: as §1

CAF#3 = test system: CAF#3 (primary prostate cancer-associated fibroblasts of myCAF-like type)
How it was run: as §1

CAF#4 = test system: CAF#4 (primary prostate cancer-associated fibroblasts of iCAF-like type)
How it was run: as §1

22Rv1 = test system: 22Rv1
How it was run: as §1

CAF#5 = test system: CAF#5 (primary prostate cancer-associated fibroblasts of myCAF-like type)
How it was run: as §1

LNCAP = test system: LNCAP
How it was run: as §1

CAF#7 = test system: CAF#7 (primary prostate cancer-associated fibroblasts of myCAF-like type)
How it was run: as §1

CAF#2 = test system: CAF#2 (primary prostate cancer-associated fibroblasts of iCAF-like type)
How it was run: as §1

WPMY-1 = test system: WPMY-1
How it was run: as §1

CAF#6 = test system: CAF#6 (primary prostate cancer-associated fibroblasts of iCAF-like type)
How it was run: as §1

| SMILES | drug sensitivity score (PF179T) | drug sensitivity score (CAF#1) | drug sensitivity score (CAF#3) | drug sensitivity score (CAF#4) | drug sensitivity score (22Rv1) | drug sensitivity score (CAF#5) | drug sensitivity score (LNCAP) | drug sensitivity score (CAF#7) | drug sensitivity score (CAF#2) | drug sensitivity score (WPMY-1) | drug sensitivity score (CAF#6) |
| --- | --- | --- | --- | --- | --- | --- | --- | --- | --- | --- | --- |
| CC(=O)Nc1cccc(-n2c(=O)n(C3CC3)c(=O)c3c(Nc4ccc(I)cc4F)n(C)c(=O)c(C)c32)c1 [Trametinib] (tested concentration range 0-250 nM) | 1.8 | 3 | 0 | 1.3 | 11.8 | 2.7 | 0 | 4.2 | 5.5 | 5.5 | 1.7 |
| Clc1ccc(C(c2ccccc2Cl)C(Cl)Cl)cc1 (stereo unspecified) [Mitotane] (tested concentration range 1-10000 nM) | 0 | 0 | 0.2 | 0 | 0 | 0 | 1.8 | 0 | 0 | 0 | 0 |
| NS(=O)(=O)NCCNc1nonc1/C(=N/O)Nc1ccc(F)c(Br)c1 [Epacadostat] (tested concentration range 1-10000 nM) | 0.5 | 0 | 0 | 2 | 0 | 0.9 | 0 | 1.1 | 1.1 | 0.2 | 0 |
| Nc1nc(OCc2cc(Br)cs2)c2[nH]cnc2n1 [Lomeguatrib] (tested concentration range 1-10000 nM) | 0 | 0 | 0.1 | 0.1 | 0 | 0.2 | 0 | 0 | 1.4 | 0 | 0 |
| COc1cc([C@@H]2c3cc4c(cc3[C@@H](O[C@@H]3O[C@@H]5CO[C@@H](c6cccs6)O[C@H]5[C@H](O)[C@H]3O)[C@H]3COC(=O)[C@H]23)OCO4)cc(OC)c1O [Teniposide] (tested concentration range 1-10000 nM) | 0 | 0 | 0 | 0 | 0 | 0 | 0 | 0 | 0 | 0 | 0 |
| COc1cc(Nc2ncc(F)c(Nc3ccc4c(n3)NC(=O)C(C)(C)O4)n2)cc(OC)c1OC [Tamatinib] (tested concentration range 1-10000 nM) | 8 | 10.9 | 1.7 | 5.8 | 0 | 6.4 | 0.8 | 3.2 | 9.7 | 6 | 0.8 |
| O=C(c1cccc(Cl)c1F)N1CCN(Cc2cccc(Nc3nccs3)n2)CC1 [MK-8745] (tested concentration range 1-10000 nM) | 5 | 2.6 | 6.8 | 1.1 | 4 | 2.8 | 14.7 | 2.6 | 4.3 | 7.6 | 3.4 |
| Cc1c(-c2c(-c3ccc(F)o3)sc3ncnc(O[C@H](Cc4ccccc4OCc4ccnn4CC(F)(F)F)C(=O)O)c23)ccc(OCCN2CCN(C)CC2)c1Cl (tested concentration range 0.1-1000 nM) | 0 | 0 | 0 | 0 | 0.7 | 0 | 0 | 0 | 0 | 0 | 0 |
| Cc1cn(-c2cc(NC(=O)c3ccc(C)c(Nc4nccc(-c5cccnc5)n4)c3)cc(C(F)(F)F)c2)cn1 [Nilotinib] (tested concentration range 1-10000 nM) | 0 | 0.8 | 0 | 1.7 | 2.1 | 0.2 | 5.3 | 0 | 0.8 | 0 | 0 |
| CNC(=O)c1cc(Oc2ccc(NC(=O)Nc3ccc(Cl)c(C(F)(F)F)c3)cc2)ccn1 [Sorafenib] (tested concentration range 0.1-1000 nM) | 0 | 0 | 2.6 | 1.2 | 0 | 0 | 0 | 0 | 0 | 0 | 0 |
| COc1cc2nccc(Oc3ccc(NC(=O)NC4CC4)c(Cl)c3)c2cc1C(N)=O [Lenvatinib] (tested concentration range 0.2-2500 nM) | 0.9 | 2.1 | 4.1 | 3 | 0 | 0.3 | 1.8 | 5.8 | 4.3 | 0.1 | 3.8 |
| NC(=O)NO [Hydroxyurea] (tested concentration range 100-1000000 nM) | 2.4 | 1.9 | 0.5 | 0.2 | 3.8 | 2.5 | 4.6 | 0 | 5.5 | 5 | 0 |
| Cc1ccc(Nc2nccc(N(C)c3ccc4c(C)n(C)nc4c3)n2)cc1S(N)(=O)=O [Pazopanib] (tested concentration range 1-10000 nM) | 5 | 3.6 | 4 | 5.4 | 0 | 3.7 | 4.1 | 5.1 | 6.7 | 0.2 | 1.1 |
| CN(C)C(=N)NC(=N)N [Metformin] (tested concentration range 10-100000 nM) | 0 | 0 | 0 | 0 | 0 | 0 | 0 | 0 | 0 | 0 | 0 |
| CC(=O)OC[C@H]1O[C@@H]([S-])[C@H](OC(C)=O)[C@@H](OC(C)=O)[C@@H]1OC(C)=O.CCP(CC)CC.[Au+] [Auranofin] (tested concentration range 0.2-2500 nM) | 0 | 3.7 | 5.1 | 3.3 | 5.7 | 3.5 | 13.1 | 7.2 | 5 | 5.2 | 5.4 |
| C[C@H]1C[C@@H](n2c(Nc3ccc(OC(F)(F)F)cc3)nc3cc(CCC(=O)O)ccc32)CC(C)(C)C1 (tested concentration range 1-10000 nM) | 0 | 0 | 0 | 0 | 0 | 0 | 0.4 | 0 | 0 | 0 | 0 |
| O=C(O)C1(C(=O)O)CCC1.[NH2-].[NH2-].[Pt+2] [Carboplatin] (tested concentration range 10-100000 nM) | 6 | 4.8 | 2.8 | 5.5 | 6.7 | 5.5 | 5.5 | 0.4 | 8.3 | 7.7 | 1.6 |
| CC[C@@H]1C(=O)N(C)c2cnc(Nc3ccc(C(=O)N[C@H]4CC[C@H](N5CCN(CC6CC6)CC5)CC4)cc3OC)nc2N1C(C)C [Volasertib] (tested concentration range 0.1-1000 nM) | 5.9 | 0.4 | 4.2 | 0 | 14.9 | 1.7 | 19.3 | 2.9 | 5.1 | 11.4 | 1.9 |
| C[C@@H]1COCCN1c1cc(C2([S@](C)(=N)=O)CC2)nc(-c2cc[nH]c3nccc2-3)n1 [Ceralasertib] (tested concentration range 2.5-25000 nM) | 8.1 | 6.6 | 6.7 | 8 | 10 | 7.8 | 10.7 | 6.3 | 9.3 | 13.9 | 6.2 |
| CC(C)Nc1cc(-c2c[nH]c(C(=O)N[C@H](CO)c3cccc(Cl)c3)c2)c(Cl)cn1 [Ulixertinib] (tested concentration range 1-10000 nM) | 1.9 | 0.2 | 0 | 1.2 | 9.6 | 0.3 | 6.1 | 4.3 | 2.2 | 5.7 | 2 |
| CC(C)NC(=O)COc1cccc(-c2nc(Nc3ccc4[nH]ncc4c3)c3ccccc3n2)c1 [KD025] (tested concentration range 0.5-5000 nM) | 0 | 0 | 2.2 | 0.1 | 1 | 1.1 | 4.5 | 0.5 | 0.1 | 2.1 | 0 |
| N#Cc1ccc(C(c2ccc(C#N)cc2)n2cncn2)cc1 [Letrozole] (tested concentration range 1-10000 nM) | 0 | 0 | 0 | 0 | 0 | 0 | 0 | 0 | 0 | 0 | 0 |
| CC[C@H](CO)Nc1nc(NCc2ccccc2)c2ncn(C(C)C)c2n1 [Seliciclib] (tested concentration range 1-10000 nM) | 0 | 1.7 | 1.4 | 1.4 | 0.2 | 2 | 4.3 | 2.3 | 1.1 | 0.6 | 1.1 |
| Cc1ccc(NC(=O)c2ccc(CN3CCN(C)CC3)cc2)cc1Nc1nccc(-c2cccnc2)n1 [Imatinib] (tested concentration range 1-10000 nM) | 0 | 0.3 | 1.7 | 2 | 1.6 | 0.6 | 2.2 | 0.7 | 2.6 | 0.6 | 1.7 |
| CON(C)C(=O)N1N=C(c2cc(F)ccc2F)S[C@@]1(CCCN)c1ccccc1 [Filanesib] (tested concentration range 0.1-1000 nM) | 13 | 0.2 | 3.2 | 6 | 21.3 | 3.9 | 29.5 | 2.6 | 17.7 | 22 | 2.6 |
| CCN(CC)CCNC(=O)c1c(C)[nH]c(/C=C2\C(=O)Nc3ccc(-c4csc(-c5ccccc5)n4)cc32)c1C [Amcasertib] (tested concentration range 1-10000 nM) | 0 | 7 | 0 | 7.1 | 6.8 | 6.6 | 3.5 | 0 | 2.3 | 0 | 0 |

From the supplement of paper PMC12592484
